Test results from publication PMC7004151, “Synthesis and Structure‐Activity Relationships of N‐(4‐Benzamidino)‐Oxazolidinones: Potent and Selective Inhibitors of Kallikrein‐Related Peptidase 6” (Chemmedchem, 2019).

Columns and labels:
KLK7 = biological target: T1, KLK7 (Homo sapiens, UniProt P49862); test: KLK7 enzyme inhibition assay; assay type: biochemical; conditions: read-out: KLK7 pIC50 (converted)
T1 construct: purchased 2B scientific
Method: Enzyme inhibition assays: All chemicals were purchased from Sigma Aldrich (Gillingham, UK) unless otherwise stated. All experiments were conducted in 384 well black, low volume microplates (Greiner 784076) with a final volume of 20 μL and compounds were dispensed into assay plates using an ECHO 550 acoustic dispenser (Labcyte). KLK6 (5 nM) (prepared as in ref. 21) was incubated with test compounds for 30 min at room temperature in assay buffer (50 mM Tris, pH 7.5, 150 mM NaCl, 1 mM EDTA, 0.05 % tween 20, 0.1 % bovine serum albumin (BSA), 1 mM dithiothreitol (DTT)) before the reaction was started by addition of 20 μM Boc‐Phe‐Ser‐Arg‐AMC substrate (Bachem). Fluorescence intensity was read at ex/em 355/460 following incubation for 2 h in the dark at room temperature.
Assays using KLK7 and KLK8 (2B scientific) were conducted in the same manner as for KLK6 with the following exceptions. Both KLK7 and KLK8 required activation before assaying. KLK7 was combined with an equal volume of 20 μg/ml thermolysin (R&D systems) in activation buffer (50 mM Tris, pH 7.5, 10 mM CaCl2, 150 mM NaCl and 0.05 % Brij‐L23) and incubated at 37 °C for 2 h, the reaction was stopped with the addition of 100 mM EDTA in stop solution (50 mM Tris, 150 mM NaCl, pH 8.5). KLK8 was combined with an equal volume of 0.4 mU/mL lysyl endopeptidase (Alpha laboratories) in activation buffer (50 mM Tris, pH 8.0) and incubated at 37 °C for 30 min. Activated KLK7 (40 nM) and KLK8 (25 nM) were assayed with 40 μM Mca‐RPKPVE‐Nval‐WRK(Dnp)‐NH2 fluorogenic MMP substrate (R&D systems) and 25 μM Boc‐V‐P‐R‐AMC substrate (R&D systems), respectively.

Human trypsin = biological target: T2, Human trypsin (Homo sapiens, UniProt P07477); test: Trypsin enzyme inhibition assay; assay type: biochemical; conditions: read-out: Trypsin pIC50 (converted)
T2 construct: purchased Polymun Scientific
Method: Human thrombin was purchased from Biopur. Human trypsin was purchased from Polymun Scientific. Human Factor Xa was purchased from Enzo Life Sciences. […] Fluorescence intensity was then read at ex/em 485/535 following incubation for 1 h at room temperature (thrombin and factor Xa) or 20 min (trypsin).

Human Factor Xa = biological target: T3, Human Factor Xa (Homo sapiens, UniProt P00742); test: Factor Xa enzyme inhibition assay; assay type: biochemical; conditions: read-out: Factor Xa pIC50 (converted)
T3 construct: Human Factor Xa was purchased from Enzo Life Sciences; purchased Enzo Life Sciences
Method: Human thrombin was purchased from Biopur. Human trypsin was purchased from Polymun Scientific. Human Factor Xa was purchased from Enzo Life Sciences. Thrombin (20 nM), trypsin (0.000015 %) or Factor Xa (10 nM) were assayed in a similar manner to the KLKs but were incubated with compound for 20 min at room temperature in assay buffer (50 mM Tris HCl, pH 7.6, 100 mM NaCl, 1 mg/ml CHAPS, 0.05 % bovine serum albumin (BSA), 1 mM dithiothreitol (DTT)) before the addition of 5 μM, 2.5 μM or 1.5 μM Rhodamine 110 substrate (Cambridge bioscience ltd) respectively. Fluorescence intensity was then read at ex/em 485/535 following incubation for 1 h at room temperature (thrombin and factor Xa) or 20 min (trypsin).

[1] = Kinetic aqueous solubility (laser nephelometry); assay type: physicochemical; conditions: Milli-Q water with […] DMSO, kinetic from dmso stock, 2.5 % DMSO
Method: Kinetic aqueous solubility: The aqueous solubility of the test compounds was measured using laser Nephelometry. Compounds were subjected to serial dilution from 10 mM to 0.5 mM in DMSO. An aliquot was then mixed with Milli‐Q water to obtain an aqueous dilution plate with a final concentration range of 250–12 μM, with a final DMSO concentration of 2.5 %. Triplicate aliquots were transferred to a flat bottomed polystyrene plate which was immediately read on the NEPHELOstar (BMG Lab Technologies). The amount of laser scatter caused by insoluble particulates (relative nephelometry units, RNU) was plotted against compound concentration using a segmental regression fit, with the point of inflection being quoted as the compounds aqueous solubility (μM).

[2] = Microsomal intrinsic clearance, mouse liver microsomes; assay type: in vitro ADME
Method: Immediately, at time zero, then at 3, 6, 9, 15 and 30 min an aliquot (50 μL) of the incubation mixture was removed and mixed with acetonitrile (100 μL) to stop the reaction. Internal standard was added to all samples, the samples centrifuged to sediment precipitated protein and the plates then sealed prior to UPLC‐MS/MS analysis using a Quattro Premier XE (Waters Corporation, USA). XLfit (IDBS, UK) was used to calculate the exponential decay and consequently the rate constant (k) from the ratio of peak area of test compound to internal standard at each timepoint. The rate of intrinsic clearance (CLint) of each test compound was then calculated using the following calculation: CLint (mL/min/g liver)=k×V×Microsomal protein yield. Where V (mL/mg protein) is the incubation volume/mg protein added and microsomal protein yield is taken as 52.5 mg protein/g liver. Verapamil (0.5 μM) was used as a positive control to confirm acceptable assay performance.

[3] = Hepatocytes intrinsic clearance; assay type: in vitro ADME
Method: Hepatocytes Intrinsic clearance (CLint) assay: Cryopreserved vials of mouse cryopreserved hepatocytes, supplied by Life Technologies, were thawed according to manufacturer's instructions and cells re‐suspended in Williams Medium E (WME) containing cell maintenance supplement pack (CM4000, Life Technologies). Hepatocytes were incubated in suspension (0.5x10^6 cells/mL) in 48 well non‐collagen coated cell culture plates for 10 min at 37 °C, 95 % O2 5 % CO2. Upon addition of an equal volume of supplemented WME containing 1 μM test compound, an aliquot of incubation solution was removed to acetonitrile containing internal standard (final concentration 0.5 μM test compound and a cell density of 0.25×10^6 cells/mL). Similarly, aliquots were removed at 3, 6, 9, 15, 30, 45, 60, 90 and 120 min. 100 μL of 80 : 20 H2O/MeCN was added to all samples and the analysis plate was centrifuged for 10 min at room temperature prior to injection and analysis of samples by UPLC‐MS/MS. The response (area ratio of test compound to internal standard) was plotted against time using an exponential decay model and rate of disappearance calculated. Hepatocyte CLint (mL/min/10^6 cells) was scaled to in vivo CLint (mL/min/g liver) using the hepatocellularity scaling factor of 120×10^6 cells/g of liver.

HCT116 cells = test: HCT116 cell growth and viability; assay type: cell-based; conditions: at the tested concentrations (data not shown)
Excerpt: We have previously shown that knockdown of KLK6 reduces migration and invasion of HCT116 cells in vitro.13 In order to test whether this effect could be recapitulated with small molecule KLK6 inhibitors, we measured the ability of 32 to reduce invasion of HCT116 cells. […] HCT116 cell growth and viability was not altered upon treatment with compounds 9 and 32 at the tested concentrations (data not shown).

in vitro = conditions: female, CD1, mouse, plasma
Method: Plasma protein binding assay: Briefly, a 96 well equilibrium dialysis apparatus was used to determine the free fraction in plasma for each compound (HT Dialysis LLC, Gales Ferry, CT). Membranes (12–14 kDa cut‐off) were conditioned in deionized water for 60 minutes, followed by conditioning in 80 : 20 deionized water: ethanol for overnight at 4 °C and then rinsed in isotonic buffer before use. Female CD1 mouse plasma was removed from the freezer and allowed to thaw on the day of experiment. Thawed plasma was then centrifuged (Allegra X12‐R, Beckman Coulter, USA), spiked with test compound (final concentration 10 μg/mL), and 150 μL aliquots (n=6 replicate determinations) loaded into the 96‐well equilibrium dialysis plate. Dialysis vs isotonic buffer (150 μL) was carried out for 5 h in a temperature‐controlled incubator at 37 °C (Barworld scientific Ltd, UK) using an orbital microplate shaker at 100 rpm (Barworld scientific Ltd, UK). […] All samples were analyzed by UPLC‐MS/MS on a Quattro Premier XE Mass Spectrometer (Waters Corporation, USA). The unbound fraction was determined as the ratio of the peak area in buffer to that in plasma.

T3 sequence (P00742 235-488 limits assumed): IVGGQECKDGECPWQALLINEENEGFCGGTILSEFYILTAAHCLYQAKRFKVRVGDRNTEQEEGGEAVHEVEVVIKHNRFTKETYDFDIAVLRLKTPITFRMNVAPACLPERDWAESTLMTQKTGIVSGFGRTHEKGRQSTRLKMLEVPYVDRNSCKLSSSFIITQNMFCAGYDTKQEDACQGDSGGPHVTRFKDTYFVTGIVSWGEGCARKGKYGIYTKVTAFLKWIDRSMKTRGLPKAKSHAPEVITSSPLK
T3 sequence (P00742 41-179 partner limits assumed): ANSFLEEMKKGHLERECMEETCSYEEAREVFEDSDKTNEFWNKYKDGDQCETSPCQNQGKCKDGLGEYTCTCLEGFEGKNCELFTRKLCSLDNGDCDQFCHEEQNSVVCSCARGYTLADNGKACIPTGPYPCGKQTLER
T1 sequence (P49862 30-253, species assumed): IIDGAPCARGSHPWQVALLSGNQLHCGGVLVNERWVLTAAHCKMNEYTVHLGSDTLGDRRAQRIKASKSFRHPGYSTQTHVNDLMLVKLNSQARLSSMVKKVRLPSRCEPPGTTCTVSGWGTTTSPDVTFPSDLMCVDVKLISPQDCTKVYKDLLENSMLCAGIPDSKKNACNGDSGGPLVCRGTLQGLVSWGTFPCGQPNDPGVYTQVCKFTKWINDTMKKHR

CC[C@H](NC(=O)[C@H]1CN(c2ccc(C(=N)N)cc2)C(=O)O1)c1cccc2ccccc12 [Compound 32, (5R)‐3‐(4‐carbamimidoylphenyl)‐N‐((S)‐1‐(naphthalen‐1‐yl)propyl)‐2‐oxooxazolidine‐5‐carboxamide]
IC50 (KLK7): > 20 µM | IC50 (Human trypsin): 63.1 nM | IC50 (Human Factor Xa): > 20 µM | solubility kinetic [1]: > 250 µM | Mouse CLint [2]: 2.4 mL/min/g | Mouse Hep Cl [3]: 2.3 mL/min/g | HCT116 cell growth and viability (HCT116 cells): not altered | fraction unbound at 5 h, 10 μg/mL (in vitro): 0.11
